# Results published in ChEMBL document CHEMBL3991601, “The target landscape of clinical kinase drugs” (Science, 2017).
# The source made the active and inactive calls. For most assays here, no stated cut-off is given here; in the data, actives have a measured Kd and inactives only a lower limit.
# How the values were obtained:
# [1] = molecular target: Epithelial discoidin domain-containing receptor 1 (Homo sapiens, UniProt Q08345)
# [2] = molecular target: Calcium/calmodulin-dependent protein kinase type II subunit delta (Homo sapiens, UniProt Q13557)
# Chain of Calcium/calmodulin-dependent protein kinase type II subunit delta (Q13557 whole entry, the tested form may be a part): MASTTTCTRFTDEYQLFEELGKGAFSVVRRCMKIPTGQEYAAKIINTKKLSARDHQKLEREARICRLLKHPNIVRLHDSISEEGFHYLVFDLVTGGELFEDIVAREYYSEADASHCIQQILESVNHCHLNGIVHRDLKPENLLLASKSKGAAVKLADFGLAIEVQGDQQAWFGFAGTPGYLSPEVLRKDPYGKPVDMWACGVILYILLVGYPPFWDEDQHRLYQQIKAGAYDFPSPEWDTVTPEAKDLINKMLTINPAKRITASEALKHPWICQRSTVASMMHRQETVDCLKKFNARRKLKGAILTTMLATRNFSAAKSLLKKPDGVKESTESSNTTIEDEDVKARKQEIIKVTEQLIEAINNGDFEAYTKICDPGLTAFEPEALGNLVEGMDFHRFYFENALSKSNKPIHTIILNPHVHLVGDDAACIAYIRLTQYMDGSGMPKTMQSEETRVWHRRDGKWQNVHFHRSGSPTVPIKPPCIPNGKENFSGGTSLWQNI
# [3] = molecular target: T1, AarF domain-containing protein kinase 1 (Homo sapiens, UniProt Q86TW2)
# T1 sequence (Q86TW2 whole entry): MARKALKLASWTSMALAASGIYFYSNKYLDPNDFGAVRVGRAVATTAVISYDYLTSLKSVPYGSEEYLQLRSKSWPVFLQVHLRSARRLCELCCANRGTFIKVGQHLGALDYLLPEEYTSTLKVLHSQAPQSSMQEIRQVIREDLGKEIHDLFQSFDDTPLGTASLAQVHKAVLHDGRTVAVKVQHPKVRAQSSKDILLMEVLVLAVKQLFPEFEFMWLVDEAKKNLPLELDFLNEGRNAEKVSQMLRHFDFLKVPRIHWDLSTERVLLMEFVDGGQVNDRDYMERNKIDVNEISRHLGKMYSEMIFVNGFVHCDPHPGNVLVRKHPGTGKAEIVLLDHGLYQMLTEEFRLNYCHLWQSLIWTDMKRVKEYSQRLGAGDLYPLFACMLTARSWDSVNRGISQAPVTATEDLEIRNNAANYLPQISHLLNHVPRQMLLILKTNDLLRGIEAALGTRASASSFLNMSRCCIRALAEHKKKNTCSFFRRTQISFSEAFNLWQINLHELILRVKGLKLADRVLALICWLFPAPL
# [4] = molecular target: T2, Succinate--CoA ligase [ADP-forming] subunit beta, mitochondrial (Homo sapiens, UniProt Q9P2R7)
# T2 sequence (Q9P2R7 whole entry): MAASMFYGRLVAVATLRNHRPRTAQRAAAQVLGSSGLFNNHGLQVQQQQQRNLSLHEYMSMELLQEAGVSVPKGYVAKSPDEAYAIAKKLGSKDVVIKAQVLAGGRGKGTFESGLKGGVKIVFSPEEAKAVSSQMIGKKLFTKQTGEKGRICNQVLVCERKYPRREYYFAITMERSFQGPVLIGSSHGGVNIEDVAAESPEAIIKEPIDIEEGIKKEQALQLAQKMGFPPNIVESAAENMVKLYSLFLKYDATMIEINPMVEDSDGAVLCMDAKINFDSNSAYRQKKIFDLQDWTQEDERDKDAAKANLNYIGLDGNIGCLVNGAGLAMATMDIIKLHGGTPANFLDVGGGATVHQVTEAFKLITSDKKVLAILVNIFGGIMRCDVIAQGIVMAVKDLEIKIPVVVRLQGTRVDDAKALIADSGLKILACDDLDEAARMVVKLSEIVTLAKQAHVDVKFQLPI
# [5] = molecular target: Receptor-interacting serine/threonine-protein kinase 2 (Homo sapiens, UniProt O43353)
# Chain of Receptor-interacting serine/threonine-protein kinase 2 (O43353 whole entry): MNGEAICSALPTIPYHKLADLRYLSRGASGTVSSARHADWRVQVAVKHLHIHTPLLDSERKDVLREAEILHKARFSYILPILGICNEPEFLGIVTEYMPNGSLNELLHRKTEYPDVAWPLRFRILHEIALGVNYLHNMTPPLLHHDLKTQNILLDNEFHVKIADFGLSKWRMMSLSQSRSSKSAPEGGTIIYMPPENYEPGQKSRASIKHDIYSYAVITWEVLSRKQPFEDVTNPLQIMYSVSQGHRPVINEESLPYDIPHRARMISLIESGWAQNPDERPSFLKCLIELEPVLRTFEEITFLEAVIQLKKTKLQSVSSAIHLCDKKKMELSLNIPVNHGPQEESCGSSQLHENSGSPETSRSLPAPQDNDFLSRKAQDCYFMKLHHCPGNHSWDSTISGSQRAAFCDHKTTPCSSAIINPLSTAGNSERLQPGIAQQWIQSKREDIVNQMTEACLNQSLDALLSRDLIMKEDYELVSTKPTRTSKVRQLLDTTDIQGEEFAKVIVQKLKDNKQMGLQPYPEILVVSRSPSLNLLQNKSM
# [6] = molecular target: Tyrosine-protein kinase BTK (Homo sapiens, UniProt Q06187)
# Chain of Tyrosine-protein kinase BTK (Q06187 whole entry): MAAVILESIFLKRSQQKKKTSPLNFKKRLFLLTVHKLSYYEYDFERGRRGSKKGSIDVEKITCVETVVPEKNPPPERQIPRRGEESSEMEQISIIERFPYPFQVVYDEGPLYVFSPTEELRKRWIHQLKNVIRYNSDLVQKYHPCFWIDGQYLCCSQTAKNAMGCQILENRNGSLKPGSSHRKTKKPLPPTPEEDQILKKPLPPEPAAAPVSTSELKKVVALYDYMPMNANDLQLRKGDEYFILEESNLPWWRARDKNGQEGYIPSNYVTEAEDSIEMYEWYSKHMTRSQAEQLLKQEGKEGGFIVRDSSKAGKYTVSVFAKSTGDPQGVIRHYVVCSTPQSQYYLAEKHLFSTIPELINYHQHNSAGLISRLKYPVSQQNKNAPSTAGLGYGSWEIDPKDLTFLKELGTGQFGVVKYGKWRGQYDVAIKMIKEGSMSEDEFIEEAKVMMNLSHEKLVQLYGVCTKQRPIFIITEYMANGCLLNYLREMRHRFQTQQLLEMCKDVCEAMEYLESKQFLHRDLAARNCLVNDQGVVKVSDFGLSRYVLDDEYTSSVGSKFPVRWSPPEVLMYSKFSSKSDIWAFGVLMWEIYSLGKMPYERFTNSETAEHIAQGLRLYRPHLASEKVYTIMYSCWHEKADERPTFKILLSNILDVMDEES
# [7] = molecular target: T3, Serine/threonine-protein kinase PLK4 (Homo sapiens, UniProt O00444)
# T3 sequence (O00444 whole entry): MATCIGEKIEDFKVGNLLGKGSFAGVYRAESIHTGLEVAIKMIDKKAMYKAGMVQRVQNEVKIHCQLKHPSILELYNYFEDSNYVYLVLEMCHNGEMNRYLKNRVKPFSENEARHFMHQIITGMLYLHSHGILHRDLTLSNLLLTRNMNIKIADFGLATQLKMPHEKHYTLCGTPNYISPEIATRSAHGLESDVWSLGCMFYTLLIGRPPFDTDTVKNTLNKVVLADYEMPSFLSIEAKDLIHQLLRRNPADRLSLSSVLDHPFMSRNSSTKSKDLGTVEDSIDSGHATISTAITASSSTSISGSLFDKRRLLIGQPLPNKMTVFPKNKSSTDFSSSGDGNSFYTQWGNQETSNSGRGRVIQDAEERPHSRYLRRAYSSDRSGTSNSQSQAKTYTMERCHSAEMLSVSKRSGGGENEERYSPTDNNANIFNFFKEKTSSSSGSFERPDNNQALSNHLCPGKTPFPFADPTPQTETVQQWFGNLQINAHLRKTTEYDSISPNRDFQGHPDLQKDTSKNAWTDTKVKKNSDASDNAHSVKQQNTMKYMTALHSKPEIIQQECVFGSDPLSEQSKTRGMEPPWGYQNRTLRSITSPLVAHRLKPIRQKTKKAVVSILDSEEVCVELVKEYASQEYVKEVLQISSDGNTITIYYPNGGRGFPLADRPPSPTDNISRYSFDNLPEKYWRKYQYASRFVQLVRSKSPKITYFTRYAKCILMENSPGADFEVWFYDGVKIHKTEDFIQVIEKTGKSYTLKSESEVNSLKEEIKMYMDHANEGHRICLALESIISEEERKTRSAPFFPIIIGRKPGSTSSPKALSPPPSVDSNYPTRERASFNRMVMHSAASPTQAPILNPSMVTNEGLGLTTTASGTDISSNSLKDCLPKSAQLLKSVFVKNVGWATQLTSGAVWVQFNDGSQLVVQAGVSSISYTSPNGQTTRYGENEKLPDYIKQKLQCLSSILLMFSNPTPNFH
# [8] = molecular target: Serine/threonine-protein kinase PAK 2 (Homo sapiens, UniProt Q13177)
# Chain of Serine/threonine-protein kinase PAK 2 (Q13177 whole entry): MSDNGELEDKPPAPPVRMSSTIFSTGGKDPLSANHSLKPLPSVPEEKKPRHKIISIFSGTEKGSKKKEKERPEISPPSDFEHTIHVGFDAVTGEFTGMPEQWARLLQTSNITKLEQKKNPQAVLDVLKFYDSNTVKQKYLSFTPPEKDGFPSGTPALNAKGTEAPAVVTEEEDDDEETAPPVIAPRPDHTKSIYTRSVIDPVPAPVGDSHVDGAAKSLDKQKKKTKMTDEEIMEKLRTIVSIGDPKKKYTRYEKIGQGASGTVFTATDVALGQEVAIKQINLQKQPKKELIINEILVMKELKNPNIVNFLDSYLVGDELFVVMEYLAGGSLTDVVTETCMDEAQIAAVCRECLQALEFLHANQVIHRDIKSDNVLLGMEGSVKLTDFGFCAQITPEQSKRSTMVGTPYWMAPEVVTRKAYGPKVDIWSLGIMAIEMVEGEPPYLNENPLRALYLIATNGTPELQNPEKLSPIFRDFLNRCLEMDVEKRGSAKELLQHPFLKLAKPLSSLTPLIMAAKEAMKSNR
# Chain of Epithelial discoidin domain-containing receptor 1 (Q08345 whole entry, the tested form may be a part): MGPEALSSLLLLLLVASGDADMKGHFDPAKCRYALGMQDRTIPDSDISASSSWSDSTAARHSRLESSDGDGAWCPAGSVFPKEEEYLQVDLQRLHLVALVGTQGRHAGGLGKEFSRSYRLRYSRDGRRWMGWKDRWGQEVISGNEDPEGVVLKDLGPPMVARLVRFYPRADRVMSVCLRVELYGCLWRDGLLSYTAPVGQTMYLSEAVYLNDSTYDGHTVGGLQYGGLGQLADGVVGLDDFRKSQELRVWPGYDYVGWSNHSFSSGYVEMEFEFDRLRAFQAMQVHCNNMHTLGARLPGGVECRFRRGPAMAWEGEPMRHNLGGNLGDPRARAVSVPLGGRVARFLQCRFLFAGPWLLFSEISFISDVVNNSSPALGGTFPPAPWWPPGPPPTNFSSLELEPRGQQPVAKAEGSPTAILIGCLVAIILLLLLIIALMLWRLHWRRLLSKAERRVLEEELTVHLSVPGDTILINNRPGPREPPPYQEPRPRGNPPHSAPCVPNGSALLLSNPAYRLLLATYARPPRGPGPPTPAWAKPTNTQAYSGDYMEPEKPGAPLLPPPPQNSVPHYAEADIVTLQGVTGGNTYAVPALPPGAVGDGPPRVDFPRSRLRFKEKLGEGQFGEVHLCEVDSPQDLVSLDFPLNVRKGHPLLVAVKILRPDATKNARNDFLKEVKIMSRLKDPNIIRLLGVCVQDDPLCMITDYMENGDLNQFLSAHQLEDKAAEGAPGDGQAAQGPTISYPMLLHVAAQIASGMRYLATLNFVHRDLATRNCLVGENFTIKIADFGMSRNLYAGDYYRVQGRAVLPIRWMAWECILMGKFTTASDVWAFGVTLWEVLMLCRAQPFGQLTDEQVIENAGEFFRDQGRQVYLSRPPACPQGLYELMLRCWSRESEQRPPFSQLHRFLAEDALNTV
SMILES,Kd [1],Kd [2],Kd [3],Kd [4],Kd [5],Kd [6],Kd [7],Kd [8]
COc1cc2ncnc(Nc3ccc(F)c(Cl)c3)c2cc1NC(=O)/C=C/CN1CCCCC1 [DACOMITINIB ANHYDROUS],> 30 µM (inactive),> 30 µM (inactive),> 30 µM (inactive),> 30 µM (inactive),0.988 µM (active),> 30 µM (inactive),> 30 µM (inactive),
C[C@]1(O)C[C@@H](c2nc(-c3ccc4ccc(-c5ccccc5)nc4c3)c3c(N)nccn32)C1 [LINSITINIB],> 30 µM (inactive),,> 30 µM (inactive),> 30 µM (inactive),1.36 µM (active),,,
CN(c1ncccc1CNc1nc(Nc2ccc3c(c2)CC(=O)N3)ncc1C(F)(F)F)S(C)(=O)=O [PF-00562271],> 30 µM (inactive),,> 30 µM (inactive),> 30 µM (inactive),> 30 µM (inactive),,,> 30 µM (inactive)
Cn1c(=O)n(-c2ccc(C(C)(C)C#N)cc2)c2c3cc(-c4cnc5ccccc5c4)ccc3ncc21 [DACTOLISIB],> 30 µM (inactive),> 30 µM (inactive),> 30 µM (inactive),> 30 µM (inactive),> 30 µM (inactive),,> 30 µM (inactive),> 30 µM (inactive)
CCOc1ccn(-c2ccc(F)cc2)c(=O)c1C(=O)Nc1ccc(Oc2ccnc(N)c2Cl)c(F)c1 [BMS-777607],0.039 µM (active),> 30 µM (inactive),> 30 µM (inactive),> 30 µM (inactive),> 30 µM (inactive),,0.301 µM,> 30 µM (inactive)
Cn1cnc2c(F)c(Nc3ccc(Br)cc3Cl)c(C(=O)NOCCO)cc21 [SELUMETINIB],,,> 30 µM (inactive),> 30 µM (inactive),,,,
O=S(=O)(c1cccc2cnccc12)N1CCCNCC1 [FASUDIL],> 30 µM (inactive),> 30 µM (inactive),> 30 µM (inactive),> 30 µM (inactive),> 30 µM (inactive),,,> 30 µM (inactive)
COc1cc2c(N3CCN(C(=O)Nc4ccc(OC(C)C)cc4)CC3)ncnc2cc1OCCCN1CCCCC1 [TANDUTINIB],,,> 30 µM (inactive),,,,,
COc1cc2c(Oc3ccc4[nH]c(C)cc4c3F)ncnc2cc1OCCCN1CCCC1 [CEDIRANIB],,,> 30 µM (inactive),> 30 µM (inactive),,,,
c1cc(OCCN2CCCCC2)cc(-c2n[nH]c3ccc(-c4nc[nH]n4)cc23)c1 [CC-401],> 30 µM (inactive),> 30 µM (inactive),> 30 µM (inactive),,> 30 µM (inactive),> 30 µM (inactive),> 30 µM (inactive),> 30 µM (inactive)
CC[C@@](C)(Nc1ccnc(-c2c[nH]c3ncccc23)n1)C(=O)NCC(F)(F)F [DECERNOTINIB],> 30 µM (inactive),20.3 µM (active),> 30 µM (inactive),> 30 µM (inactive),> 30 µM (inactive),> 30 µM (inactive),,> 30 µM (inactive)
C=CCn1c(=O)c2cnc(Nc3ccc(N4CCN(C)CC4)cc3)nc2n1-c1cccc(C(C)(C)O)n1 [ADAVOSERTIB],> 30 µM (inactive),> 30 µM (inactive),1.9 µM (active),> 30 µM (inactive),> 30 µM (inactive),,> 30 µM (inactive),> 30 µM (inactive)
CC1(C)CNc2cc(NC(=O)c3cccnc3NCc3ccncc3)ccc21 [MOTESANIB],,,> 30 µM (inactive),> 30 µM (inactive),,,,
CN(C)C/C=C/C(=O)Nc1cc2c(Nc3ccc(F)c(Cl)c3)ncnc2cc1O[C@H]1CCOC1 [AFATINIB],,,> 30 µM (inactive),,,,,
Cc1c(Cn2c(C)nc3c(C(=O)O)cc(N4CCOCC4)cc32)cccc1C(F)(F)F [GSK-2636771],> 30 µM (inactive),> 30 µM (inactive),> 30 µM (inactive),> 30 µM (inactive),> 30 µM (inactive),> 30 µM (inactive),> 30 µM (inactive),
Cn1cc(-c2[nH]c3cc(NC(=O)[C@H](N)C4CCCCC4)cc4c3c2C=NNC4=O)cn1,> 30 µM (inactive),> 30 µM (inactive),4.5 µM (active),> 30 µM (inactive),> 30 µM (inactive),2.84 µM (active),,> 30 µM (inactive)
NC(=O)c1ccc(N(C(N)=O)c2c(F)cccc2F)nc1-c1ccc(F)cc1F [VX-702],> 30 µM (inactive),> 30 µM (inactive),> 30 µM (inactive),> 30 µM (inactive),> 30 µM (inactive),> 30 µM (inactive),> 30 µM (inactive),
C[C@@]1(C(=O)Nc2ccc(F)nc2)CCCN1c1nc(Nc2cc(C3CC3)n[nH]2)c2cccn2n1 [BMS-754807],,,> 30 µM (inactive),> 30 µM (inactive),,,,
CCc1nc(C(N)=O)c(Nc2ccc(N3CCC(N4CCN(C)CC4)CC3)c(OC)c2)nc1NC1CCOCC1 [GILTERITINIB],> 30 µM (inactive),0.207 µM (active),0.152 µM (active),> 30 µM (inactive),0.482 µM (active),> 30 µM (inactive),0.018 µM,
O=C(NOC[C@H](O)CO)c1ccc(F)c(F)c1Nc1ccc(I)cc1F [MIRDAMETINIB],> 30 µM (inactive),> 30 µM (inactive),> 30 µM (inactive),,> 30 µM (inactive),> 30 µM (inactive),> 30 µM (inactive),> 30 µM (inactive)
O=C(Nc1ccc(OC(F)(F)F)cc1)c1sccc1NCc1ccnc2ccccc12 [OSI-930],> 30 µM (inactive),> 30 µM (inactive),> 30 µM (inactive),,> 30 µM (inactive),> 30 µM (inactive),> 30 µM (inactive),
N#CCNC(=O)c1ccc(-c2ccnc(Nc3ccc(N4CCOCC4)cc3)n2)cc1 [MOMELOTINIB],> 30 µM (inactive),,0.217 µM,> 30 µM (inactive),> 30 µM (inactive),> 30 µM (inactive),,> 30 µM (inactive)
Cc1c(NC(=O)OC[C@@H]2COCCN2)cn2ncnc(Nc3ccc4c(cnn4Cc4cccc(F)c4)c3)c12 [AC-480],> 30 µM (inactive),> 30 µM (inactive),> 30 µM (inactive),> 30 µM (inactive),> 30 µM (inactive),> 30 µM (inactive),> 30 µM (inactive),
CCN(CCCOc1ccc2c(Nc3cc(CC(=O)Nc4cccc(F)c4)n[nH]3)ncnc2c1)CCOP(=O)(O)O [BARASERTIB],> 30 µM (inactive),> 30 µM (inactive),> 30 µM (inactive),> 30 µM (inactive),1.85 µM (active),,> 30 µM (inactive),> 30 µM (inactive)
FC(F)(F)c1ccc(CNc2ccc(Cc3c[nH]c4ncc(Cl)cc34)cn2)cn1 [PEXIDARTINIB],> 30 µM (inactive),> 30 µM (inactive),> 30 µM (inactive),> 30 µM (inactive),> 30 µM (inactive),> 30 µM (inactive),> 30 µM (inactive),
